This assay concerns TFEB. Briefly: TFEB nuclear translocation assay, HeLa wt cells. The class given is cell-based. Conditions: Homo sapiens, HeLa, 2 h, 2 hrs compound treatment, Table 1 does not say HeLa wt or TRPML1 KO. Put shortly: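 Using 20× epifluorescence of fixed, anti-TFEB-stained HeLa wt cells treated 2 hrs with compound, nuclear versus perinuclear ring intensity was quantified over four fields per well, yielding AC50 values.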
As usually defined, the AC50 is the concentration at which the activity in the assay is half-maximal. Low values mean greater potency, high ones weaker potency. Turning to `CC(C)(C)C(=O)N1CCN(c2ccccc2NS(=O)(=O)c2ccc(C(C)(C)C#N)cc2)CC1` [Compound A-535, 4-(1-cyano-1-methylethyl)-N-{2-[4-(2,2-dimethylpropanoyl)piperazin-1-yl]phenyl}benzene-1-sulfonamide], the half-maximal activity concentration (AC50) was 2.01 to 8 µM.

In turn, `CC(C)(C)C(=O)N1CCN(c2ccccc2NS(=O)(=O)c2ccc(OC3CCCC3)cc2)CC1` [Compound A-536, 4-(cyclopentyloxy)-N-{2-[4-(2,2-dimethylpropanoyl)piperazin-1-yl]phenyl}benzene-1-sulfonamide] came in with an AC50 of 8.01 to 9.99 µM.

`CC(C)(C)C(=O)N1CCN(c2ccccc2NS(=O)(=O)c2ccc(C(F)(F)C(F)(F)F)cc2)CC1` [Compound A-537, N-{2-[4-(2,2-dimethylpropanoyl)piperazin-1-yl]phenyl}-4-(1,1,2,2,2-pentafluoroethyl)benzene-1-sulfonamide] displayed a concentration at half-maximal activity (AC50) of 8.01 to 9.99 µM.

Take `COCC1(C)CCN(c2ccccc2NS(=O)(=O)c2ccc(OC)cc2)CC1` [Compound A-538, 4-methoxy-N-{2-[4-(methoxymethyl)-4-methylpiperidin-1-yl]phenyl}benzene-1-sulfonamide]: the AC50 was at most 2 µM.

As for `COCC1(C)CCN(c2ccccc2NS(=O)(=O)c2ccc(C)cc2)CC1` [Compound A-539, N-{2-[4-(methoxymethyl)-4-methylpiperidin-1-yl]phenyl}-4-methylbenzene-1-sulfonamide], the AC50 is at most 2 µM.

For the compound `CC(N1CCN(c2ccccc2NS(=O)(=O)c2ccc(S(C)(=O)=O)cc2)CC1)C(F)(F)F` (stereo not shown) [Compound A-540, 4-methanesulfonyl-N-{2-[4-(1,1,1-trifluoropropan-2-yl)piperazin-1-yl]phenyl}benzene-1-sulfonamide], the AC50 is at most 2 µM.

`CC(N1CCN(c2ccccc2NS(=O)(=O)c2ccc(Cl)cc2)CC1)C(F)(F)F` (stereo not shown) [Compound A-541, 4-chloro-N-{2-[4-(1,1,1-trifluoropropan-2-yl)piperazin-1-yl]phenyl}benzene-1-sulfonamide]: the AC50 is at most 2 µM.

In the case of `CC(N1CCN(c2ccccc2NS(=O)(=O)Cc2ccccc2)CC1)C(F)(F)F` (stereo not shown) [Compound A-542, 1-phenyl-N-{2-[4-(1,1,1-trifluoropropan-2-yl)piperazin-1-yl]phenyl}methanesulfonamide], the AC50 was at most 2 µM.

The compound `CN(C)S(=O)(=O)c1ccc(S(=O)(=O)Nc2ccccc2N2CCC(COC(F)F)CC2)cc1` [Compound A-543, N4-(2-{4-[(difluoromethoxy)methyl]piperidin-1-yl}phenyl)-N1,N1-dimethylbenzene-1,4-disulfonamide] returned an AC50 of at most 2 µM.

Compound `C[C@@H]1CN(CC2CCN(c3ccccc3NS(=O)(=O)c3ccc(S(=O)(=O)N(C)C)cc3)CC2)C[C@H](C)O1` [Compound A-544, N4-[2-(4-{[(2R,6S)-2,6-dimethylmorpholin-4-yl]methyl}piperidin-1-yl)phenyl]-N1,N1-dimethylbenzene-1,4-disulfonamide] registered an AC50 of at most 2 µM.

The compound `CN(C)S(=O)(=O)c1ccc(S(=O)(=O)Nc2ccccc2N2CCN(C(c3ccccc3)C(F)(F)F)CC2)cc1` (stereo not shown) [Compound A-545, N1,N1-dimethyl-N4-{2-[4-(2,2,2-trifluoro-1-phenylethyl)piperazin-1-yl]phenyl}benzene-1,4-disulfonamide] came in with an AC50 of at most 2 µM.

`CCC1(OC)CCN(c2ccccc2NS(=O)(=O)c2ccc(S(=O)(=O)N(C)C)cc2)CC1` [Compound A-546, N4-[2-(4-ethyl-4-methoxypiperidin-1-yl)phenyl]-N1,N1-dimethylbenzene-1,4-disulfonamide] displayed an AC50 of at most 2 µM.

On to `CN(C)S(=O)(=O)c1ccc(S(=O)(=O)Nc2ccccc2N2CCC(CCCN3CCOCC3)CC2)cc1` [Compound A-547, N1,N1-dimethyl-N4-(2-{4-[3-(morpholin-4-yl)propyl]piperidin-1-yl}phenyl)benzene-1,4-disulfonamide], for which the AC50 is at most 2 µM.

For the compound `CN(C)S(=O)(=O)c1ccc(S(=O)(=O)Nc2ccccc2N2CCC(C3CCOCC3)CC2)cc1` [Compound A-548, N1,N1-dimethyl-N4-{2-[4-(oxan-4-yl)piperidin-1-yl]phenyl}benzene-1,4-disulfonamide], the AC50 is at most 2 µM.

In turn, `CCN(CC)CC1CCN(c2ccccc2NS(=O)(=O)c2ccc(S(=O)(=O)N(C)C)cc2)CC1` [Compound A-549, N4-(2-{4-[(diethylamino)methyl]piperidin-1-yl}phenyl)-N1,N1-dimethylbenzene-1,4-disulfonamide] displayed an AC50 of 2.01 to 8 µM.

`CN(C)S(=O)(=O)c1ccc(S(=O)(=O)Nc2ccccc2N2CCC(C(F)(F)F)CC2)cc1` [Compound A-550, N1,N1-dimethyl-N4-{2-[4-(trifluoromethyl)piperidin-1-yl]phenyl}benzene-1,4-disulfonamide] registered a half-maximal activity concentration (AC50) of at most 2 µM.

Regarding `CN(C)S(=O)(=O)c1ccc(S(=O)(=O)Nc2ccccc2N2CCN(CC(F)(F)C(F)F)CC2)cc1` [Compound A-551, N1,N1-dimethyl-N4-{2-[4-(2,2,3,3-tetrafluoropropyl)piperazin-1-yl]phenyl}benzene-1,4-disulfonamide], the AC50 is at most 2 µM.

`CN(C)S(=O)(=O)c1ccc(S(=O)(=O)Nc2ccccc2N2CCN(CC(F)F)CC2)cc1` [Compound A-552, N4-{2-[4-(2,2-difluoroethyl)piperazin-1-yl]phenyl}-N1,N1-dimethylbenzene-1,4-disulfonamide] had an AC50 of at most 2 µM.

For `COCCN1CCN(c2ccccc2NS(=O)(=O)c2ccc(S(=O)(=O)N(C)C)cc2)CC1` [Compound A-553, N4-{2-[4-(2-methoxyethyl)piperazin-1-yl]phenyl}-N1,N1-dimethylbenzene-1,4-disulfonamide], the AC50 was in the range of 2.01 to 8 µM.

For the compound `CN(C)S(=O)(=O)c1ccc(S(=O)(=O)Nc2ccccc2N2CCC(CN3CCOCC3)CC2)cc1` [Compound A-554, N1,N1-dimethyl-N4-(2-{4-[(morpholin-4-yl)methyl]piperidin-1-yl}phenyl)benzene-1,4-disulfonamide], the half-maximal activity concentration (AC50) is at most 2 µM.

With `COCC1(C)CCN(c2ccccc2NS(=O)(=O)c2ccc(OCC3CC3)cc2)CC1` [Compound A-555, 4-(cyclopropylmethoxy)-N-{2-[4-(methoxymethyl)-4-methylpiperidin-1-yl]phenyl}benzene-1-sulfonamide], the AC50 lay in the range of 2.01 to 8 µM.

The compound `CC(c1ccccc1N1CCN(C(=O)OCc2ccccc2)CC1)S(=O)(=O)c1ccc(S(=O)(=O)N(C)C)cc1` (stereo not shown) [Compound A-556, benzyl 4-(2-{1-[4-(dimethylsulfamoyl)benzenesulfonyl]ethyl}phenyl)piperazine-1-carboxylate] gave an AC50 of at most 2 µM.

In turn, `CC(O)C1(C)CCN(c2ccccc2NS(=O)(=O)c2ccc(S(=O)(=O)N(C)C)cc2)CC1` (stereo not shown) [Compound A-557, N1-(2-(4-(1-hydroxyethyl)-4-methylpiperidin-1-yl)phenyl)-N4,N4-dimethylbenzene-1,4-disulfonamide] displayed an AC50 of 2.01 to 8 µM.

Regarding `CN(C)S(=O)(=O)c1ccc(S(=O)(=O)Nc2ccccc2N2CCC(C)(C3(O)CC3)CC2)cc1` [Compound A-558, N1-(2-(4-(1-hydroxycyclopropyl)-4-methylpiperidin-1-yl)phenyl)-N4,N4-dimethylbenzene-1,4-disulfonamide], the AC50 is 2.01 to 8 µM.

On to `CN(C)S(=O)(=O)c1ccc(S(=O)(=O)Nc2ccccc2N2CCN(CCF)CC2)cc1` [Compound A-559, N4-{2-[4-(2-fluoroethyl)piperazin-1-yl]phenyl}-N1,N1-dimethylbenzene-1,4-disulfonamide], for which the AC50 was in the range of 2.01 to 8 µM.

Turning to `CN(C)S(=O)(=O)c1ccc(S(=O)(=O)Nc2ccccc2N2CCN(CC(F)(F)F)CC2)cc1` [Compound A-560, N1,N1-dimethyl-N4-{2-[4-(2,2,2-trifluoroethyl)piperazin-1-yl]phenyl}benzene-1,4-disulfonamide], the AC50 was at most 2 µM.

Regarding `Cc1ccc(S(=O)(=O)n2cc3c(N4CCN(C5CCCCC5)CC4)cccc3n2)cc1` [Compound A-561], the concentration at half-maximal activity (AC50) fell in the range of 2.01 to 8 µM.

As to `CN(C)S(=O)(=O)c1ccc(S(=O)(=O)Nc2ccccc2N2CCC3(CCCCO3)CC2)cc1` [Compound A-562, N1,N1-dimethyl-N4-(2-{1-oxa-9-azaspiro[5.5]undecan-9-yl}phenyl)benzene-1,4-disulfonamide], the AC50 was at most 2 µM.

The compound `COc1ccc(Cl)cc1CS(=O)(=O)Nc1ccccc1N1CCN(C(=O)C(C)(C)C)CC1` [Compound A-563, 1-(5-chloro-2-methoxyphenyl)-N-{2-[4-(2,2-dimethylpropanoyl)piperazin-1-yl]phenyl}methanesulfonamide] gave an AC50 of at least 10 µM.

The compound `CC(C)(C)C(=O)N1CCN(c2ccccc2NS(=O)(=O)C2(c3ccccc3)CC2)CC1` [Compound A-564, N-{2-[4-(2,2-dimethylpropanoyl)piperazin-1-yl]phenyl}-1-phenylcyclopropane-1-sulfonamide] gave an AC50 of at most 2 µM.

With `CC(C)(C)C(=O)N1CCN(c2ccccc2NS(=O)(=O)Cc2cccc3cccnc23)CC1` [Compound A-565, N-{2-[4-(2,2-dimethylpropanoyl)piperazin-1-yl]phenyl}-1-(quinolin-8-yl)methanesulfonamide], the AC50 is 8.01 to 9.99 µM.

As for `CC(C)(C)C(=O)N1CCN(c2ccccc2NS(=O)(=O)Cc2ccc3ccccc3c2)CC1` [Compound A-566, N-{2-[4-(2,2-dimethylpropanoyl)piperazin-1-yl]phenyl}-1-(naphthalen-2-yl)methanesulfonamide], the AC50 is 2.01 to 8 µM.

`CC(C)(C)C(=O)N1CCN(c2ccccc2NS(=O)(=O)c2ccc(CC(F)(F)F)cc2)CC1` [Compound A-567, N-{2-[4-(2,2-dimethylpropanoyl)piperazin-1-yl]phenyl}-4-(2,2,2-trifluoroethyl)benzene-1-sulfonamide] returned a concentration at half-maximal activity (AC50) of at least 10 µM.

In the case of `CC(C)(C)C(=O)N1CCN(c2ccccc2NS(=O)(=O)c2ccc(OC(F)(F)F)cc2)CC1` [Compound A-568, N-{2-[4-(2,2-dimethylpropanoyl)piperazin-1-yl]phenyl}-4-(trifluoromethoxy)benzene-1-sulfonamide], the AC50 lay in the range of 8.01 to 9.99 µM.
